Source: the supplement of paper PMC5770543
± gives the standard deviation.

How the values were obtained:
[1] = molecular target: Toxoplasma gondii RH tachyzoites; experiment: EC50 growth inhibition (48 h luciferase)
[2] = tested on: Toxoplasma gondii RH tachyzoites; experiment: % growth inhibition vs DMSO (48 h luciferase); higher = more inhibition; details: 10 µM
[3] = tested on: Plasmodium falciparum 3D7; experiment: EC50 growth inhibition (60 h, SYBR Green); details: stage: ring-stage start
[4] = tested on: Plasmodium falciparum 3D7; experiment: % inhibition of schizont-to-ring transition vs DMSO; higher = more inhibition
Summary of the method: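 Schizont-to-ring transition inhibition compares new ring formation with that in vehicle controls. Synchronised P. falciparum schizonts (about 40–42 hours post-invasion, 1% parasitemia, 2.5% hematocrit, AlbuMAX-supplemented RPMI) were exposed to 1, 3 or 10 µM compound, after which rings were counted by Hoechst 33342 flow cytometry across three experiments.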
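For % growth inhibition vs DMSO (48 h luciferase) in this document: tested in triplicate wells of 96-well plates on confluent HFF monolayers, with 1% DMSO wells as negative control in four replicates.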

SMILES | EC50 growth inhibition [1] | % growth inhibition [2] | EC50 growth inhibition [3] | % inhibition of schizont-to-ring transition ([4]; 1 µM) | % inhibition of schizont-to-ring transition ([4]; 3 µM) | % inhibition of schizont-to-ring transition ([4]; 10 µM)
CCCCCCn1c(=N)n(CC(O)COc2cccc(C)c2)c2ccccc21 (stereo not drawn) | 2090 nM | 99.65 ± 0.38% | 1130 nM | 7.26% | 18.9% | 72.6%
COc1ccc(-c2nc3cc(Cc4ccc5[nH]c(-c6ccc(OC)cc6)nc5c4)ccc3[nH]2)cc1 | 1470 nM | 100 ± 0.58% | 185 nM | 50.4% | 65.3% | 68.3%
CN(C)c1ccc(C=Cc2nc(=O)c3ccccc3o2)cc1 | 264 nM | 99.12 ± 0.036% | 522 nM | 44.1% | 60.6% | 70.1%
O=C(Nc1ccc(N2CCN(Cc3ccccc3)CC2)cc1)c1cccs1 | 183 nM | 91.82 ± 0.81% | 1870 nM | 22.9% | 21.2% | 39.3%
Oc1c(C(Nc2ccccn2)c2cccc(Oc3ccccc3)c2)ccc2cccnc12 (stereo not drawn) | 1080 nM | 99.07 ± 0.26% | 852 nM | 27.1% | 43.9% | 64.8%
CCOC(=O)C1=CN(C)C=C(C(=O)OCC)C1c1cc(Br)c(OCC)c(OC)c1 | 2590 nM | 95.51 ± 0.24% | 1040 nM | 41.2% | 58.3% | 58.9%
OC1=C2C(=Nc3ccccc3SC2c2ccc(Br)cc2)c2ccccc21 (stereo not drawn) | 803 nM | 99.19 ± 0.75% | 588 nM | 19.5% | 33.4% | 45.5%
Cc1ccc(Cl)cc1N1CCN(CCCNC(=O)C2CCN(c3nc4ccccc4[nH]3)CC2)CC1 | 3240 nM | 98.63 ± 0.9% | 920 nM | 37.8% | 50.8% | 60.5%
CCOc1ccc2nc(C)cc(Nc3ccc(Br)cc3)c2c1 | 4410 nM | 99.53 ± 0.2% | 180 nM | 28% | 45.8% | 44.9%
O=c1c2c([nH]c3ccccc13)CCCC2 | 1040 nM | 89.6 ± 1.1% | 1790 nM | 13.7% | 22.2% | 42.9%
COCCN(C(=O)Cc1cccs1)C(C(=O)NCc1ccc(OC)cc1)c1ccc(C(C)C)cc1 (stereo not drawn) | 2420 nM | 91.5 ± 3.5% | 935 nM | 10.9% | 13.7% | 21.6%
CCOc1ccc(-n2cc(-c3ccccc3)c3c(SCc4cc(C)ccc4C)ncnc32)cc1 | 3170 nM | 86.5 ± 1.3% |  | 1.01% | 7.47% | 15.8%
O=C1c2ccc3c4c(ccc(c24)C(=O)N1CCCCO)C(=O)N(CCCCO)C3=O | 421 nM | 99.55 ± 0.29% | 4810 nM | 9.23% | 16.9% | 64.2%
CCc1ccc(Nc2cc(C)c3ccc(O)cc3n2)cc1 | 3050 nM | 97.8 ± 1.4% | 286 nM | 58.8% | 82.3% | 80.4%
COc1ccc(-c2nonc2NC(=O)c2cccc(Cl)c2)cc1OC | 35.3 nM | 84.3 ± 0.96% | 1170 nM | 36.5% | 56.1% | 71%
O=C(Nc1ccc(Br)cc1)Nc1cccc(Cl)c1 | 3770 nM | 96.13 ± 0.57% |  | 24.1% | 22.5% | 58.1%
CCOC(=O)C1=C(c2ccccc2)N=c2sc(=Cc3cc(C)n(-c4ccc(F)cc4)c3C)c(=O)n2C1c1cccc(OC)c1OC (stereo not drawn) | 1500 nM | 92.3 ± 2% | 493 nM | 0.392% | 3.17% | 14.4%
CN(C)CCCNCc1ccc(-c2ccc(F)c(Cl)c2)o1 | 1660 nM | 92.8 ± 3.3% | 601 nM | 12.5% | 38.8% | 63.5%
CCCCCCc1cc(O)c2c3c(c(=O)oc2c1)CCC(C)C3 (stereo not drawn) | 471 nM | 99.37 ± 0.72% | 3410 nM | 18.6% | 34.9% | 52.4%
c1ccc(CNc2nc(Nc3ccccc3)nc3ccccc23)cc1 | 708 nM | 99.917 ± 0.022% | 181 nM | 44.8% | 51.2% | 66.8%
CCOC(=O)c1cn(CC)c2cc(N(C)CCc3ccc(OC)c(OC)c3)c(F)cc2c1=O | 910 nM | 97.69 ± 0.15% | 210 nM | 36.8% | 60.5% | 66.7%
O=C(Nc1ccccc1O)c1ccc(Oc2cccc(C(=O)Nc3ccccc3O)c2)cc1 | 1670 nM | 99.35 ± 0.37% | 1840 nM | 0.57% | 30% | 46.7%
O=C1c2ccccc2C2=Nc3ccccc3SC(c3cccc(F)c3)C12 (stereo not drawn) | 916 nM | 99.31 ± 0.18% | 283 nM | 15.1% | 29% | 37.5%
CCn1nc(-c2ccc(C(=O)OC)cc2)nc2c(=O)n(C)c(=O)nc1-2 | 2200 nM | 100.5 ± 0.19% | 107 nM | 30.7% | 37.6% | 53.3%
Cc1sc(NC(=O)c2ccccc2)c(C(c2cccs2)N2CCN(c3ccccc3)CC2)c1C (stereo not drawn) | 550 nM | 88.7 ± 5.2% | 1930 nM | 5.65% | 10.7% | 36.5%
